Assay results taken from patent US7521423B2, “Exendin pharmaceutical compositions” (Amylin Pharmaceuticals, Inc., priority 1996, dated 2009).
Entries after “also recorded” stand apart in the source; their conditions may differ. No end group written: not given here.

Columns and labels:
[1] = test system: gastric emptying; experiment: Gastric emptying in conscious rats, retention of phenol red methyl cellulose gel 20 min after gavage (Example 1); assay type: in vivo, Male Harlan Sprague Dawley (HSD) rats; conditions: for ED50 of inhibition of gastric emptying: Example 1, FIG. 2, subcutaneous injection, 20 min after gavage; for % remaining (percent of gastric contents remaining 20 minutes after gavage): normal rats; for effect on gastric emptying (in words): Example 1, dose-response study
Method: As described in Example 1, gastric emptying was measured in normal Sprague Dawley rats using the retention of an acaloric methylcellulose gel containing Phenol Red delivered by gavage. Dye content in stomachs removed after sacrifice 20 minutes later was determined spectroscopically, and was compared to that in rats sacrificed immediately after gavage to assess emptying.
This experiment followed a modification of the method of Scarpignato, et al., Arch. Int. Pharmacodyn. Ther. 246:286-94 (1980).
Male Harlan Sprague Dawley (HSD) rats were used. All animals were housed at 22.7±0.8 C in a 12:12 hour light:dark cycle (experiments being performed during the light cycle) and were fed and watered ad libitum (Diet LM-485, Teklad, Madison, Wis.).
The determination of gastric emptying by the method described below was performed after a fast of ˜20 hours to ensure that the stomach contained no chyme that would interfere with spectrophotometric absorbance measurements.
(§1) Conscious rats received by gavage, 1.5 ml of an acaloric gel containing 1.5% methyl cellulose (M-0262, Sigma Chemical Co, St Louis, Mo.) and 0.05% phenol red indicator. Twenty minutes after gavage, rats were anesthetized using 5% halothane, the stomach exposed and clamped at the pyloric and lower esophageal sphincters using artery forceps, removed and opened into an alkaline solution which was made up to a fixed volume. Stomach content was derived from the intensity of the phenol red in the alkaline solution, measured by absorbance at a wavelength of 560 nm. In separate experiments on 7 rats, the stomach and small intestine were both excised and opened into an alkaline solution. The quantity of phenol red that could be recovered from the upper gastrointestinal tract within 20 minutes of gavage was 89±4%; dye which appeared to bind irrecoverably to the gut luminal surface may have accounted for the balance. To account for a maximal dye recovery of less than 100%, percent of stomach contents remaining after 20 min were expressed as a fraction of the gastric contents recovered from control rats sacrificed immediately after gavage in the same experiment. Percent gastric contents remaining =(absorbance at 20 min)/(absorbance at 0 mm)×100.
In baseline studies, with no drug treatment, gastric emptying over 20 min was determined. […]

[2] = test system: gastric emptying; experiment: Antagonism by exendin[9-39] of gastric emptying inhibition by exendin-4 and GLP-1[7-36]NH2 (Example 3); assay type: in vivo, rats
Method: (sc), n=6; and 0.3 mg exendin[9-39] (sc), n=6 on the retention of gastric contents 20 minutes after gavage. Also shown are saline controls at t=0 and t=20 min. The error bars show standard error of the mean. […] Exendin[9-39] (sc) alone had no effect on gastric emptying.
(iv), n=5 on the retention of gastric contents 20 minutes after gavage. Also shown are saline controls at t+0 and t=20 min. The error bars show standard error of the mean.
(iv), n=3 on the retention of gastric contents 20 minutes after gavage. Also shown are saline controls at t=0 and t=20 min. The error bars show standard error of the mean. […] When injected along with GLP-1[7-36]NH2, exendin[9-39]
as §1
In these studies, exendin[9-39] was give both subcutaneously (sc) and intravenously (iv).

[3] = test system: pentagastrin-induced gastric acid secretion; conditions: reported, Gedulin et al. 1997; cited from earlier work
[4] = test system: food intake; conditions: mice, peripheral injection; cited from earlier work
[5] = test system: gastric emptying; experiment: Gastric emptying inhibition by exendin-4 analogs, methods of Example 1 (Example 2); assay type: in vivo, Male HSD rats; conditions: for ED50 of inhibition of gastric emptying: Example 2, FIG. 3; for ED50 of inhibition of gastric emptying / EC50 (inhibition of gastric emptying): 20 min after gavage; for EC50 (inhibition of gastric emptying): Example 2, Table II; for effect on gastric emptying (in words): Example 2, dose-response study
Description: as §1, with “Twenty” for “Conscious rats received by gavage, 1.5 ml of an acaloric gel containing 1.5% methyl cellulose (M-0262, Sigma Chemical Co, St Louis, Mo.) and 0.05% phenol red indicator. Twenty”, “The quantity of phenol red that could be recovered from the upper gastrointestinal tract within 20 minutes of gavage was 89±4%; dye which appeared to bind irrecoverably to the gut luminal surface may have accounted for the balance.” left out

Substance | ED50 of inhibition of gastric emptying [1] | % remaining (percent of gastric contents remaining 20 minutes after gavage) ([1]; dose 0.100 μg) | % remaining (percent of gastric contents remaining 20 minutes after gavage) ([1]; dose 0.300 μg) | % remaining (percent of gastric contents remaining 20 minutes after gavage) ([1]; dose 1.000 μg) | % remaining (percent of gastric contents remaining 20 minutes after gavage) ([1]; dose 3.000 μg) | % remaining (percent of gastric contents remaining 20 minutes after gavage) ([1]; dose 10.000 μg) | % remaining (percent of gastric contents remaining 20 minutes after gavage) ([1]; dose 100.000 μg) | % remaining (percent of gastric contents remaining 20 minutes after gavage) ([1]; dose 0.010 μg) | ED50 of inhibition of gastric emptying [5] | EC50 (inhibition of gastric emptying) [5] | effect on gastric emptying (in words) [5] | also measured
GLP-1[7-36]NH2 [GLP-1 (7-36)NH2] | approximately 9 μg | 42.00 (7) % | 29.60 (7) % | 37.20 (9) % | 56.60 (10) % | 87.90 (11) % | 103.60 (7) % | – | – | – | – | effect on retention of gastric contents 20 minutes after gavage ([2]; 10 μg GLP-1[7-36]NH2 (sc) alone, FIGS. 6 and 7): potently inhibited gastric emptying; inhibition of pentagastrin-induced gastric acid secretion [3]: inhibitory effect; inhibition of food intake [4]: not observed
exendin-3 | ~0.1 µg | 70.770 (3) % | 86.420 (3) % | 95.330 (3) % | – | 101.760 (3) % | 103.640 (3) % | 58.240 (3) % | – | – | – | effect on gastric emptying (in words) ([1]; listed as exendin 3): dose-dependently inhibited gastric emptying; effect on gastric emptying (in words) ([1]; listed as exendin-3): potent inhibitors of gastric emptying
exendin[9-39] | – | – | – | – | – | – | – | – | – | – | – | effect on gastric emptying ([2]; 0.3 mg exendin[9-39] (sc) alone): no effect; antagonism of the effect of exendin-4 on gastric emptying inhibition ([2]; 0.3 mg exendin[9-39] (sc) plus 1.0 μg exendin-4 (sc), FIG. 4): did not antagonize; antagonism of the effect of exendin-4 on gastric emptying inhibition ([2]; 0.5 mg exendin[9-39] (iv) plus 0.3 μg exendin-4 (sc), FIG. 5): did not antagonize; antagonism of the effect of GLP-1[7-36]NH2 on gastric emptying inhibition ([2]; 0.5 mg exendin[9-39] (iv) plus 10 μg GLP-1[7-36]NH2 (sc), FIG. 7): did not antagonize; antagonism of the effect of GLP-1[7-36]NH2 on gastric emptying inhibition ([2]; 3 mg exendin[9-39] (sc) plus 10 μg GLP-1[7-36]NH2 (sc), FIG. 6): did not antagonize; reversal / block of the effect of exendin-4 on gastric emptying ([2]; exendin[9-39] administered sc or iv, FIGS. 4 and 5): not reversed; also recorded: did not block; block of the effect of GLP-1[7-36]NH2 on gastric emptying ([2]; exendin[9-39] sc or iv, FIGS. 6 and 7): did not block
^14Leu, ^25Phe exendin-4 | – | – | – | – | – | – | – | – | 0.29 µg | 0.29 µg | potent inhibitors of gastric emptying; also recorded: dose dependently inhibiting gastric emptying | –
exendin-4 acid | – | – | – | – | – | – | – | – | 0.12 µg | 0.12 µg | potent inhibitors of gastric emptying; also recorded: dose dependently inhibiting gastric emptying | –
rat amylin (KCNTATCATQRLANFLVRSSNNLGPVLPPTNVGSNTY; ends and bridges not checked; cysteine pairing not given here; UniProt P12969 38-74, looked up) [second positive control for gastric emptying] | – | 52.70 (6) % | 58.20 (4) % | 96.80 (9) % | 108.000 (4) % | 101.10 (6) % | 101.20 (2) % | 37.60 (2) % | – | – | – | –
